Experimental data: paper PMC5218480 (PLoS ONE, 2017)

System: MV-4-11 cells
Assay: Gene expression microarray analysis (Affymetrix PrimeView) and GSEA
Type: cell-based, human
Set-up: RFU PODN (11730768_x_at) / Fold change /veh PODN (11730768_x_at) / RFU LINC00158 (11744669_a_at) / Fold change /veh LINC00158 (11744669_a_at) / RFU DUSP10 (11751237_a_at) / Fold change /veh DUSP10 (11751237_a_at) / RFU ID3 (11757404_x_at) / Fold change /veh ID3 (11757404_x_at) / RFU PLEKHG5 (11737974_s_at) / Fold change /veh PLEKHG5 (11737974_s_at) / RFU LRRC4B (11730491_at) / Fold change /veh LRRC4B (11730491_at) / RFU GIMAP4 (11747438_a_at) / Fold change /veh GIMAP4 (11747438_a_at) / RFU KRT8 (11758183_x_at) / Fold change /veh KRT8 (11758183_x_at) / RFU CNN1 (11734310_a_at) / Fold change /veh CNN1 (11734310_a_at) / RFU VPS37D (11726825_at) / Fold change /veh VPS37D (11726825_at) / RFU C10orf10 (11716522_x_at) / Fold change /veh C10orf10 (11716522_x_at) / RFU KIR2DL2 /// KIR2DL4 /// KIR2DL5A /// KIR2DL5B /// KIR2DS1 /// KIR2DS2 /// KIR2DS3 /// KIR2DS4 /// KIR3DL3 /// KIR3DL3 /// KIR3DS1 (11738374_at) / Fold change /veh KIR2DL2 /// KIR2DL4 /// KIR2DL5A /// KIR2DL5B /// KIR2DS1 /// KIR2DS2 /// KIR2DS3 /// KIR2DS4 /// KIR3DL3 /// KIR3DL3 /// KIR3DS1 (11738374_at) / RFU C1QL1 (11718748_at) / Fold change /veh C1QL1 (11718748_at) / RFU TMPRSS4 (11747572_a_at) / Fold change /veh TMPRSS4 (11747572_a_at) / RFU HAMP (11756126_x_at) / Fold change /veh HAMP (11756126_x_at) / RFU RNFT2 (11725882_a_at) / Fold change /veh RNFT2 (11725882_a_at) / RFU NR4A2 (11747474_a_at) / Fold change /veh NR4A2 (11747474_a_at) / RFU ABCC12 (11746883_a_at) / Fold change /veh ABCC12 (11746883_a_at) / RFU TMEM136 (11760407_x_at) / Fold change /veh TMEM136 (11760407_x_at) / RFU CLDN22 /// WWC2 (11732394_at) / Fold change /veh CLDN22 /// WWC2 (11732394_at) / RFU HLA-DPB1 (11760878_x_at) / Fold change /veh HLA-DPB1 (11760878_x_at) / RFU SPINT1 (11716480_a_at) / Fold change /veh SPINT1 (11716480_a_at) / RFU GAP43 (11754022_s_at) / Fold change /veh GAP43 (11754022_s_at) / RFU A4GNT (11735810_at) / Fold change /veh A4GNT (11735810_at) / RFU PRB3 (11715151_x_at) / Fold change /veh PRB3 (11715151_x_at) / RFU TUBB4B (11761932_at) / Fold change /veh TUBB4B (11761932_at) / RFU CAPN14 (11732068_a_at) / Fold change /veh CAPN14 (11732068_a_at) / RFU TMCC2 (11721928_a_at) / Fold change /veh TMCC2 (11721928_a_at) / RFU IRGQ (11745062_a_at) / Fold change /veh IRGQ (11745062_a_at) / RFU FAM174B (11720279_a_at) / Fold change /veh FAM174B (11720279_a_at) / RFU TMPRSS4 (11748680_a_at) / Fold change /veh TMPRSS4 (11748680_a_at) / RFU FAM212B (11763350_a_at) / Fold change /veh FAM212B (11763350_a_at) / RFU PLEKHG5 (11743358_a_at) / Fold change /veh PLEKHG5 (11743358_a_at) / RFU ZSCAN30 (11745921_a_at) / Fold change /veh ZSCAN30 (11745921_a_at) / RFU CMKLR1 (11741424_a_at) / Fold change /veh CMKLR1 (11741424_a_at) / RFU LOC101060620 /// MAPK8IP1 (11723275_at) / Fold change /veh LOC101060620 /// MAPK8IP1 (11723275_at) / RFU SPTSSB (11747773_x_at) / Fold change /veh SPTSSB (11747773_x_at) / RFU PRSS12 (11739890_at) / Fold change /veh PRSS12 (11739890_at) / RFU BIN1 (11741810_x_at) / Fold change /veh BIN1 (11741810_x_at) / RFU WNT11 (11732464_a_at) / Fold change /veh WNT11 (11732464_a_at) / RFU C10orf10 (11716521_a_at) / Fold change /veh C10orf10 (11716521_a_at) / RFU C5orf56 (11738089_at) / Fold change /veh C5orf56 (11738089_at) / RFU CYB561 (11721691_x_at) / Fold change /veh CYB561 (11721691_x_at) / RFU ANKRD19P (11752326_a_at) / Fold change /veh ANKRD19P (11752326_a_at) / RFU OR2T12 /// OR2T33 /// OR2T8 (11738714_s_at) / Fold change /veh OR2T12 /// OR2T33 /// OR2T8 (11738714_s_at) / RFU VCAN (11748164_a_at) / Fold change /veh VCAN (11748164_a_at) / RFU JSRP1 (11732532_at) / Fold change /veh JSRP1 (11732532_at) / RFU KRTAP10-11 (11738290_x_at) / Fold change /veh KRTAP10-11 (11738290_x_at) / RFU MYO3A (11730013_a_at) / Fold change /veh MYO3A (11730013_a_at) / RFU EBF3 (11725865_a_at) / Fold change /veh EBF3 (11725865_a_at) / RFU CAMK2N1 (11719241_x_at) / Fold change /veh CAMK2N1 (11719241_x_at) / RFU C5orf56 (11738088_a_at) / Fold change /veh C5orf56 (11738088_a_at) / RFU OLFML3 (11715873_a_at) / Fold change /veh OLFML3 (11715873_a_at) / RFU LOC100653217 /// NTM (11731650_a_at) / Fold change /veh LOC100653217 /// NTM (11731650_a_at) / RFU MAPK11 (11762145_a_at) / Fold change /veh MAPK11 (11762145_a_at) / RFU FIZ1 (11724087_x_at) / Fold change /veh FIZ1 (11724087_x_at) / RFU OASL (11726364_x_at) / Fold change /veh OASL (11726364_x_at) / RFU SOX15 (11748057_x_at) / Fold change /veh SOX15 (11748057_x_at) / RFU CD79A (11719716_a_at) / Fold change /veh CD79A (11719716_a_at) / RFU HIST1H1D (11736915_at) / Fold change /veh HIST1H1D (11736915_at) / RFU CASKIN2 (11723855_a_at) / Fold change /veh CASKIN2 (11723855_a_at) / RFU LOC730098 (11760151_x_at) / Fold change /veh LOC730098 (11760151_x_at) / RFU OR4N2 (11742367_at) / Fold change /veh OR4N2 (11742367_at) / RFU PRRT2 (11749266_a_at) / Fold change /veh PRRT2 (11749266_a_at) / RFU SNX32 (11753110_a_at) / Fold change /veh SNX32 (11753110_a_at) / RFU CDHR5 (11726645_a_at) / Fold change /veh CDHR5 (11726645_a_at) / RFU RCAN1 (11760418_a_at) / Fold change /veh RCAN1 (11760418_a_at) / RFU FAM167A (11723789_a_at) / Fold change /veh FAM167A (11723789_a_at) / RFU FAM26E (11764081_at) / Fold change /veh FAM26E (11764081_at) / RFU ISYNA1 (11749810_s_at) / Fold change /veh ISYNA1 (11749810_s_at) / RFU ACY1 (11761880_at) / Fold change /veh ACY1 (11761880_at) / RFU 11764098_at / Fold change /veh 11764098_at / RFU SAMD14 (11745864_x_at) / Fold change /veh SAMD14 (11745864_x_at) / RFU NPB (11741838_a_at) / Fold change /veh NPB (11741838_a_at) / RFU TMPRSS6 (11731388_a_at) / Fold change /veh TMPRSS6 (11731388_a_at) / RFU KRTAP10-2 (11738614_at) / Fold change /veh KRTAP10-2 (11738614_at) / RFU ARHGAP8 /// PRR5-ARHGAP8 (11727945_x_at) / Fold change /veh ARHGAP8 /// PRR5-ARHGAP8 (11727945_x_at) / RFU KRTAP5-7 /// NADSYN1 (11734609_at) / Fold change /veh KRTAP5-7 /// NADSYN1 (11734609_at) / RFU RASL12 (11751679_a_at) / Fold change /veh RASL12 (11751679_a_at) / RFU CDKN2B (11736163_a_at) / Fold change /veh CDKN2B (11736163_a_at) / RFU PRF1 (11729649_at) / Fold change /veh PRF1 (11729649_at) / RFU, ZNF638 /// ZNF638-IT1 / Fold change vs veh, ZNF638 /// ZNF638-IT1 / RFU, PANK3 / Fold change vs veh, PANK3 / RFU, SH3YL1 / Fold change vs veh, SH3YL1 / RFU, ZEB2 / Fold change vs veh, ZEB2 / RFU, NRIP1 / Fold change vs veh, NRIP1 / RFU, PTTG1IP / Fold change vs veh, PTTG1IP / RFU, CAPN2 / Fold change vs veh, CAPN2 / RFU, MED14 / Fold change vs veh, MED14 / RFU, SNORA58 / Fold change vs veh, SNORA58 / RFU, C1orf63 / Fold change vs veh, C1orf63 / RFU, LRRFIP1 / Fold change vs veh, LRRFIP1 / RFU, NDUFAF7 / Fold change vs veh, NDUFAF7 / RFU, SLC12A2 / Fold change vs veh, SLC12A2 / RFU, IBTK / Fold change vs veh, IBTK / RFU, ESF1 / Fold change vs veh, ESF1 / Fold change vs veh, TMEM50B / RFU, TAOK1 / Fold change vs veh, TAOK1 / RFU, ACBD3 / Fold change vs veh, ACBD3 / RFU, TMA16 / Fold change vs veh, TMA16 / RFU, RWDD3 / Fold change vs veh, RWDD3 / RFU, BCAT1 / Fold change vs veh, BCAT1 / RFU, EDEM3 / Fold change vs veh, EDEM3 / RFU, TMEM33 / Fold change vs veh, TMEM33 / RFU, WDR75 / Fold change vs veh, WDR75 / RFU, AHCTF1 / Fold change vs veh, AHCTF1 / RFU, TFRC / Fold change vs veh, TFRC / RFU, ZDHHC17 / Fold change vs veh, ZDHHC17 / RFU, NOM1 / Fold change vs veh, NOM1 / RFU, ARL8B / Fold change vs veh, ARL8B / RFU, ZBTB11 / Fold change vs veh, ZBTB11 / RFU, TAMM41 / Fold change vs veh, TAMM41 / RFU, KIAA1704 /// LOC100996395 / Fold change vs veh, KIAA1704 /// LOC100996395 / RFU, ING1 / Fold change vs veh, ING1 / RFU, TRMT61B / Fold change vs veh, TRMT61B / RFU, FUBP3 / Fold change vs veh, FUBP3 / RFU, TP53 / Fold change vs veh, TP53 / RFU, TNKS2 / Fold change vs veh, TNKS2 / RFU, ZFP14 / Fold change vs veh, ZFP14 / RFU, ACTR2 / Fold change vs veh, ACTR2 / RFU, PPP3R1 / Fold change vs veh, PPP3R1 / RFU, PIK3R1 / Fold change vs veh, PIK3R1 / RFU, HNRNPA1 / Fold change vs veh, HNRNPA1 / RFU, RNF170 / Fold change vs veh, RNF170 / RFU, ZNF28 / Fold change vs veh, ZNF28 / RFU, RNGTT / Fold change vs veh, RNGTT / RFU, OGT / Fold change vs veh, OGT / RFU, BRD1 / Fold change vs veh, BRD1 / RFU, MARS / Fold change vs veh, MARS / RFU, ZNF655 / Fold change vs veh, ZNF655 / RFU, FAHD1 / Fold change vs veh, FAHD1 / RFU, BDP1 / Fold change vs veh, BDP1 / RFU, LRRCC1 / Fold change vs veh, LRRCC1 / RFU, ARID1A / Fold change vs veh, ARID1A / RFU, ZNF146 / Fold change vs veh, ZNF146 / RFU, ZNF330 / Fold change vs veh, ZNF330 / RFU, GPN3 / Fold change vs veh, GPN3 / RFU, C9orf123 / Fold change vs veh, C9orf123 / RFU, N4BP2L2 / Fold change vs veh, N4BP2L2 / RFU, ARFIP1 / Fold change vs veh, ARFIP1 / RFU, FAM179B / Fold change vs veh, FAM179B / RFU, BCL10 / Fold change vs veh, BCL10 / RFU, UHRF1BP1L / Fold change vs veh, UHRF1BP1L / RFU, BET1 / Fold change vs veh, BET1 / RFU, CNOT2 / Fold change vs veh, CNOT2 / RFU, ZNF268 / Fold change vs veh, ZNF268 / Fold change vs veh, ZNF507 / RFU, DGCR2 / Fold change vs veh, DGCR2 / RFU, WDSUB1 / Fold change vs veh, WDSUB1 / Fold change vs veh, HSP90B1 /// MIR3652 / RFU, ADSS / Fold change vs veh, ADSS / RFU, GK / Fold change vs veh, GK / RFU, ZNF148 / Fold change vs veh, ZNF148 / RFU, TAF9 / Fold change vs veh, TAF9 / RFU, SLC1A5 / Fold change vs veh, SLC1A5 / RFU, SLMO2 / Fold change vs veh, SLMO2 / RFU, ABCC4 / Fold change vs veh, ABCC4 / RFU, LOC101060439 /// RAP1B / Fold change vs veh, LOC101060439 /// RAP1B / RFU, RFX7 / Fold change vs veh, RFX7 / RFU, GTPBP10 / Fold change vs veh, GTPBP10 / RFU, CNEP1R1 / Fold change vs veh, CNEP1R1 / RFU, BIVM-ERCC5 /// ERCC5 / Fold change vs veh, BIVM-ERCC5 /// ERCC5 / RFU, ILF3 / Fold change vs veh, ILF3 / RFU 11762660_at / Fold change /veh 11762660_at / RFU VCAN (11757783_s_at) / Fold change /veh VCAN (11757783_s_at) / RFU DDX43 (11728927_at) / Fold change /veh DDX43 (11728927_at) / RFU KRT8 (11758188_x_at) / Fold change /veh KRT8 (11758188_x_at) / RFU NKD1 (11759106_at) / Fold change /veh NKD1 (11759106_at) / RFU SRD5A1 (11742802_a_at) / Fold change /veh SRD5A1 (11742802_a_at) / RFU TPSAB1 /// TPSB2 (11721975_s_at) / Fold change /veh TPSAB1 /// TPSB2 (11721975_s_at) / RFU GSTM3 (11746129_a_at) / Fold change /veh GSTM3 (11746129_a_at) / RFU IL23R (11737362_x_at) / Fold change /veh IL23R (11737362_x_at) / RFU TMEM51 (11727254_a_at) / Fold change /veh TMEM51 (11727254_a_at) / RFU PIWIL2 (11732686_x_at) / Fold change /veh PIWIL2 (11732686_x_at) / RFU ORM1 (11744905_x_at) / Fold change /veh ORM1 (11744905_x_at) / RFU CCDC152 (11743942_at) / Fold change /veh CCDC152 (11743942_at) / RFU ECM1 (11717891_a_at) / Fold change /veh ECM1 (11717891_a_at) / RFU IL23R (11748794_a_at) / Fold change /veh IL23R (11748794_a_at) / RFU TNFAIP8L3 (11732012_x_at) / Fold change /veh TNFAIP8L3 (11732012_x_at) / RFU MBOAT4 (11741988_at) / Fold change /veh MBOAT4 (11741988_at) / RFU 11764193_at / Fold change /veh 11764193_at / RFU TMEM53 (11763286_at) / Fold change /veh TMEM53 (11763286_at) / RFU MAGEB2 (11727129_at) / Fold change /veh MAGEB2 (11727129_at) / RFU TMEM200A (11744735_a_at) / Fold change /veh TMEM200A (11744735_a_at) / RFU CCDC152 (11751479_a_at) / Fold change /veh CCDC152 (11751479_a_at) / RFU FAM211A (11726209_a_at) / Fold change /veh FAM211A (11726209_a_at) / RFU RGS16 (11746705_a_at) / Fold change /veh RGS16 (11746705_a_at) / RFU VCAN (11755009_s_at) / Fold change /veh VCAN (11755009_s_at) / RFU RHOB (11743442_s_at) / Fold change /veh RHOB (11743442_s_at) / RFU RGS16 (11720943_a_at) / Fold change /veh RGS16 (11720943_a_at) / RFU RGS16 (11720944_at) / Fold change /veh RGS16 (11720944_at) / RFU, VPS4B / Fold change vs veh, VPS4B / RFU, CREB1 / Fold change vs veh, CREB1 / RFU, DNAJC13 / Fold change vs veh, DNAJC13 / RFU, GNAQ / Fold change vs veh, GNAQ / RFU, CDK5R1 / Fold change vs veh, CDK5R1 / RFU, ZRANB3 / Fold change vs veh, ZRANB3 / RFU, CUL4A / Fold change vs veh, CUL4A / RFU, CCNY / Fold change vs veh, CCNY / RFU, UFL1 / Fold change vs veh, UFL1 / RFU, COG3 / Fold change vs veh, COG3 / RFU, DIAPH2 / Fold change vs veh, DIAPH2 / RFU, SKA2 / Fold change vs veh, SKA2 / RFU, AFF3 / Fold change vs veh, AFF3 / RFU, LMF1 / Fold change vs veh, LMF1 / RFU, IPO11 / Fold change vs veh, IPO11 / RFU, DFFB / Fold change vs veh, DFFB / RFU, FOXP1 / Fold change vs veh, FOXP1 / RFU, CARD8 / Fold change vs veh, CARD8 / RFU, STRN3 / Fold change vs veh, STRN3 / RFU, ADK / Fold change vs veh, ADK / RFU, RASSF2 / Fold change vs veh, RASSF2 / RFU, WIPF1 / Fold change vs veh, WIPF1 / RFU, LARP1B / Fold change vs veh, LARP1B / RFU, RASA1 / Fold change vs veh, RASA1 / RFU, RB1 / Fold change vs veh, RB1 / RFU, PPFIA1 / Fold change vs veh, PPFIA1 / RFU, MAT2A / Fold change vs veh, MAT2A / RFU, CCT5 / Fold change vs veh, CCT5 / RFU, WDR92 / Fold change vs veh, WDR92 / RFU, CUX1 / Fold change vs veh, CUX1 / RFU, TTC7A / Fold change vs veh, TTC7A / RFU, TMEM135 / Fold change vs veh, TMEM135 / RFU, DEPTOR / Fold change vs veh, DEPTOR / RFU, CPM / Fold change vs veh, CPM / RFU, DNAJB6 / Fold change vs veh, DNAJB6 / RFU, CACNA2D3 / Fold change vs veh, CACNA2D3 / RFU, DTX4 / Fold change vs veh, DTX4 / RFU, TFCP2 / Fold change vs veh, TFCP2 / RFU, GMCL1 /// GMCL1P1 / Fold change vs veh, GMCL1 /// GMCL1P1 / RFU, AEBP2 / Fold change vs veh, AEBP2 / RFU, SNHG1 /// SNORD22 /// SNORD25 /// SNORD26 /// SNORD27 /// SNORD28 /// SNORD29 /// SNORD31 / Fold change vs veh, SNHG1 /// SNORD22 /// SNORD25 /// SNORD26 /// SNORD27 /// SNORD28 /// SNORD29 /// SNORD31 / Fold change (Aza/veh), C12orf56 (ProbeSet 11735607_a_at) / Fold change (ACY-1035/veh), C12orf56 (ProbeSet 11735607_a_at) / Fold change (Aza/veh), FGFR1OP (ProbeSet 11751329_s_at) / Fold change (ACY-1035/veh), FGFR1OP (ProbeSet 11751329_s_at) / Fold change (Aza/veh), VPS36 (ProbeSet 11739960_a_at) / Fold change (ACY-1035/veh), VPS36 (ProbeSet 11739960_a_at) / RFU SYPL1 (11715823_x_at) / Fold change /veh SYPL1 (11715823_x_at) / RFU IGFBP7 (11715501_s_at) / Fold change /veh IGFBP7 (11715501_s_at) / RFU REEP3 (11722064_at) / Fold change /veh REEP3 (11722064_at) / RFU IGLL1 (11728026_x_at) / Fold change /veh IGLL1 (11728026_x_at): dose or concentration left out as unconfirmed
Conditions: MV-4-11 cells, 48 hours

Nc1ccc(-c2cccs2)cc1NC(=O)c1ccc2c(c1)cc(C1CC1)n2CCN1CCOCC1 [ACY-1035]
Fold change /veh CAMK2N1 (11719241_x_at): 0.84
